Measurements reported in US20070197509A1, “Compositions and methods for modulating gated ion channels” (PainCeptor Pharma Corporation, priority 2005, published 2007).
“Also recorded” adds a separate entry of the source.

Key:
hASIC1a [1] = target: T1, hASIC1a (Homo sapiens, UniProt P78348); test: Whole-cell patch clamp of acid-induced currents in cells transfected with hASIC1a; type: cell-based; parameters: expressed in transfected cells; conditions: for effect on acid-induced hASIC1a inward current (FIGS. 2A, 2B, 3C): whole-cell patch clamp, dose-inhibition curves
T1 sequence (P78348 1-528): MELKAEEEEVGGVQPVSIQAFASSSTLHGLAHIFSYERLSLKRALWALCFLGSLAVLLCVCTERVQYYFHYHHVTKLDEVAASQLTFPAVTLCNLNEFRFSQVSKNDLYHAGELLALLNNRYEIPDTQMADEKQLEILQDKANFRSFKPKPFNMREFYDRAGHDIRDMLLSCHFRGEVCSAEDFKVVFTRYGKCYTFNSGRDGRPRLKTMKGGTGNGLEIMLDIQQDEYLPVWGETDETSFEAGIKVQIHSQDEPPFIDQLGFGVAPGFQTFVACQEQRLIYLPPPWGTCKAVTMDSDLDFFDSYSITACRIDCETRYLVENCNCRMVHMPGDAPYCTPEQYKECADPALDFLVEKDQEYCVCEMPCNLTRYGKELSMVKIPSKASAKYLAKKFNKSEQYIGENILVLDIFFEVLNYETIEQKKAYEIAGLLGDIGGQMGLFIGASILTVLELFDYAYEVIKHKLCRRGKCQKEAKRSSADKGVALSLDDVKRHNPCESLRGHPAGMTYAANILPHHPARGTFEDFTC
Description: Another example of an in vitro assessment method consists of using mammalian heterologous expression systems, which are known to those skilled in the art, and include a variety of mammalian cell lines such as COS, HEK, e.g., HEK293 and/or CHO, cells. Cell lines are transfected with gated ion channel(s) and used to perform electrophysiology as follows:
All experiments are performed at room temperature (20-25° C.) in voltage clamp using conventional whole cell patch clamp methods (Neher, E., et al. (1978) Pfluegers Arch 375:219-228).
The amplifier used is the EPC-9 (HEKA-electronics, Lambrect, Germany) run by a Macintosh G3 computer via an ITC-16 interface. Experimental conditions are set with the Pulse-software accompanying the amplifier. Data is low pass filtered and sampled directly to hard-disk at a rate of 3 times the cut-off frequency.
Pipettes are pulled from borosilicate glass using a horizontal electrode puller (Zeitz-lnstrumente, Augsburg, Germany). The pipette resistances are 2-3 MOhms in the salt solutions used in these experiments. The pipette electrode is a chloridized silver wire, and the reference is a silver chloride pellet electrode (In Vivo Metric, Healdsburg, USA) fixed to the experimental chamber. The electrodes are zeroed with the open pipette in the bath just prior to sealing.
Coverslips with the cells are transferred to a 15 μl experimental chamber mounted on the stage of an inverted microscope (IMT-2, Olympus) supplied with Nomarski optics. Cells are continuously superfused with extracellular saline at a rate of 2.5 ml/min. After giga-seal formation, the whole cell configuration is attained by suction. The cells are held at a holding voltage of −60 mV and at the start of each experiment the current is continuously measured for 45 s to ensure a stable baseline. Solutions of low pH (<7) are delivered to the chamber through a custom-made gravity-driven flowpipe, the tip of which is placed approximately 50 μm from the cell. Application is triggered when the tubing connected to the flowpipe is compressed by a valve controlled by the Pulse-software. Initially, low pH (in general, pH 6.5) is applied for 5 s every 60 s. The sample interval during application is 550 μs. After stable responses are obtained, the extracellular saline as well as the low-pH solution are switched to solutions containing the compound to be tested. The compound is present until responses of repeatable amplitude are achieved. Current amplitudes are measured at the peak of the responses, and effect of the compounds is calculated as the amplitude at compound equilibrium divided by the amplitude of the current evoked by the pulse just before the compound was included.
The following salt solutions are used: extracellular solution (mM): NaCl (140), KCl (4), CaCl2 (2), MgCl2 (4), HEPES (10, pH 7.4); intracellular solution (mM): KCl (120), KOH (31), MgCl2 (1.785), EGTA (10), HEPES (10, pH 7.2). In general, compounds for testing are dissolved in 50% DMSO at 500 fold the highest concentration used.
CHO cells were transfected with hASIC1a and used to perform full dose-inhibition curves with Compound B, and Compound R. Results are expressed as a fraction of the control peak current obtained in the absence of the test substance.

hASIC1a [2] = target: T1, hASIC1a; test: Two-electrode voltage clamp in Xenopus laevis oocytes expressing hASIC1a (OpusExpress); type: cell-based; parameters: expressed in transfected cells; host or cells: Xenopus laevis oocytes, nuclear microinjection of cDNA (e.g. in pCDNA3); conditions: for effect on hASIC1a current evoked by pH 6.5 in oocytes (FIGS. 4A-4D): OpusExpress, two-electrode voltage clamp, dose-response
Summary of the method: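 Two-electrode voltage clamp on Xenopus oocytes expressing homomeric hASIC1a, recorded on an automated multichannel system. Oocytes superfused with Ringer (HEPES, pH 7.4); currents evoked by MES-buffered acidic Ringer, with compound present in both control and acidic solutions, at room temperature.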

[3] = Table H, read-out: IC50 (μM) Patch Clamp (h1a)

Row | Structure (SMILES) | IC50 (hASIC1a [1]; [3]) [µM] | effect on hASIC1a current evoked by pH 6.5 in oocytes (FIGS. 4A-4D) (hASIC1a [2]) | IC50 (hASIC1a [1]; patch clamp (PC), Tables A-F, h1a printed in some cells only, read-out: Biological Data (IC50 uM) h1a (PC)) [µM] | selectivity hASIC1a versus hASIC3 (hASIC1a [1]; patch clamp, CHO cells, FIG. 3) | reversibility of the effect on hASIC1a current (hASIC1a [1]; washout of the compound after 1 μM) | effect on acid-induced hASIC1a inward current (FIGS. 2A, 2B, 3C) (hASIC1a [1]) | IC50 (hASIC1a [2]; OpusExpress (OX), Tables A-F, h1a printed in some cells only, read-out: Biological Data (IC50 uM) h1a (OX)) [µM] | IC50 (hASIC1a [2]; Table H, read-out: IC50 (μM) Opus Express (h1a)) [µM]
1 | COc1ccc(C(=O)CN2CCN(c3cc(C)nc4ccccc34)CC2)cc1 [Compound A, 1-(4-methoxy-phenyl)-2-[4-(2-methyl-quinolin-4-yl)-piperazin-1-yl]-ethanone] | > 10 | effective modulators | – | – | – | – | – | –
2 | Cc1cc(OC2CCN(Cc3ccccc3)CC2)c2ccccc2n1 [Compound R, 4-(1-benzyl-piperidin-4-yloxy)-2-methyl-quinoline] | 3.8 | effective modulators; also recorded: dose-dependent reduction | 2 to 10 | selective against specific ASIC subunits; also recorded: selective for hASIC1a over hASIC3 | fully reversed upon washout | dose-dependently reduce hASIC1a activity; also recorded: reduced the hASIC1a pH-evoked response in a dose-dependent manner; also recorded: dose-dependent reduction | 2 to 10 | 1.5
3 | Fc1cccc2c(OC3CCN(Cc4ccccc4)CC3)cc(C(F)(F)F)nc12 [Compound B, 4-(1-benzyl-piperidin-4-yloxy)-8-fluoro-2-trifluoromethyl-quinoline] | – | dose-dependent reduction | – | – | – | dose-dependently reduce hASIC1a activity; also recorded: dose-dependent reduction | – | –
